The source of these data is paper PMC11277489, “Novel Piperazine Derivatives of Vindoline as Anticancer Agents” (International Journal of Molecular Sciences, 2024).

In one test the test system is SiHa cell line. More on the design: method as in PMID 32102414. As to conditions: cited from earlier work.
Test [1] has as its system 60 human tumor cell lines (NCI60). The test can be described thus: NCI60 one-dose screen (10 μM), whole panel. The note with it: 10 μM one-dose, NCI60. The test is classed as cell-based.

Turning to `CC[C@]12C=CCN3CC[C@@]4(c5ccc(OC)cc5N(C)[C@H]4[C@@](O)(C(=O)OC)[C@@H]1OC(=O)CCCN1CCN(CCCC(=O)O[C@@H]4[C@]5(CC)C=CCN6CC[C@@]7(c8ccc(OC)cc8N(C)[C@H]7[C@@]4(O)C(=O)OC)[C@@H]65)CC1)[C@@H]32` [Compound 4], the IC50 (commonly the concentration that inhibits the measured activity by half) in the test with SiHa cell line is 2850 nM.
`CCC12C=CCN3CCC4(c5cc(N)c(OC)cc5N(C)C4C(O)(C(=O)OC)C1OC(C)=O)C32` (centres unmarked) [Compound 11, 10-aminovindoline]: the “antiproliferative effect (in words)” value in test [1] is on record as “a notable antiproliferative effect was not shown”.
